# Measured values: US5567692A, “9-[(substituted glycyl) amido)]-6-demethyl-6-deoxytetracyclines” (priority 1995, dated 1996)
# Structures can show the parent of a compound that is named as a salt. Where two headings read alike, the source gives them in different places.
# How the values were obtained:
# Type in all cases: cell-based
# E. coli UBMS 88-1 Tet B = assay: microbe, parasite or virus in culture; conditions: Escherichia coli, UBMS881TETB, 18 h
# E. coli PRP1 Tet A = assay: microbe, parasite or virus in culture; conditions: Escherichia coli, PRP1TETA, 18 h
# E. coli J3272 Tet C = assay: microbe, parasite or virus in culture; conditions: Escherichia coli, J3272TETC, 18 h
# E. coli UBMS 89-1 Tet M = assay: microbe, parasite or virus in culture; conditions: Escherichia coli, UBMS891TETM, 18 h
# [1] = tested on: E. coli UBMS 89-2 Tet sens.; assay: MIC, agar dilution; conditions: Escherichia coli, 18 h; E. coli UBMS 89-2 Tet sens.; read-out: MIC
# E. coli J2175 = assay: MIC, agar dilution; conditions: Escherichia coli, 18 h, read-out: MIC
# E. coli BAJ9003 IMP MUT = assay: microbe, parasite or virus in culture; conditions: Escherichia coli, BAJ9003IMPMUT, 18 h
# E. coli UBMS 90-4 Tet M = assay: microbe, parasite or virus in culture; conditions: Escherichia coli, UBMS904TETM, 18 h
# E. coli UBMS 90-5 = assay: microbe, parasite or virus in culture; conditions: Escherichia coli, UBMS905, 18 h
# E. coli #311 (MP) = assay: MIC, agar dilution; conditions: Escherichia coli, 18 h
# E. coli ATCC 25922 = assay: MIC, agar dilution; conditions: Escherichia coli, ATCC25922, 18 h
# E. coli J3272 Tet D = assay: microbe, parasite or virus in culture; conditions: Escherichia coli, J3272TETD, 18 h
# S. marcescens FPOR 8733 = assay: MIC, agar dilution; conditions: Serratia marcescens, FPOR8733, 18 h
# [2] = tested on: X. maltophilia NEMC 87210; assay: MIC, agar dilution; conditions: Stenotrophomonas maltophilia, NEMC87210, 18 h
# [3] = tested on: Ps. aeruginosa ATCC 27853; assay: MIC, agar dilution; conditions: Pseudomonas aeruginosa, ATCC27853, 18 h, Ps. aeruginosa ATCC 27853; read-out: MIC
# S. aureus NEMC 8769 = assay: MIC, agar dilution; conditions: Staphylococcus aureus, NEMC8769, 18 h
# S. aureus UBMS 88-4 = assay: MIC, agar dilution; conditions: Staphylococcus aureus, UBMS884, 18 h
# [4] = tested on: S. aureus UBMS 88-5 Tet M; assay: microbe, parasite or virus in culture; conditions: Staphylococcus aureus, UBMS885TETM, 18 h
# [5] = tested on: S. aureus UBMS 88-7 Tet K; assay: microbe, parasite or virus in culture; conditions: Staphylococcus aureus, UBMS887TETK, 18 h
# [6] = tested on: S. aureus UBMS 90-1 Tet M; assay: microbe, parasite or virus in culture; conditions: Staphylococcus aureus, UBMS901TETM, 18 h
# S. aureus UBMS 90-3 = assay: MIC, agar dilution; conditions: Staphylococcus aureus, UBMS903, 18 h
# [7] = tested on: S. aureus UBMS 90-2 Tet M; assay: microbe, parasite or virus in culture; conditions: Staphylococcus aureus, UBMS902TETM, 18 h
# S. aureus IVES 2943 = assay: MIC, agar dilution; conditions: Staphylococcus aureus, IVES2943, 18 h
# S. aureus ROSE (MP) = assay: MIC, agar dilution; conditions: Staphylococcus aureus, 18 h
# S. aureus SMITH (MP) = assay: MIC, agar dilution; conditions: Staphylococcus aureus, 18 h
# S. aureus IVES 1983 = assay: MIC, agar dilution; conditions: Staphylococcus aureus, IVES1983, 18 h
# S. aureus ATCC 29213 = assay: MIC, agar dilution; conditions: Staphylococcus aureus, ATCC29213, 18 h, S. aureus ATCC 29213
# [8] = tested on: S. hemolyticus AVHAH 88-3; assay: MIC, agar dilution; conditions: Streptococcus pyogenes, AVHAH883, 18 h
# Enterococcus 12201 = assay: MIC, agar dilution; conditions: Enterococcus, 12201, 18 h
# E. faecalis ATCC 29212 = assay: MIC, agar dilution; conditions: Enterococcus faecalis, ATCC29212, 18 h
# [9] = tested on: E. coli MC 4100 Tet sens.; assay: MIC, agar dilution; conditions: Escherichia coli, 18 h
# [10] = tested on: E. coli MC 4100 TNIOC Tet B; assay: microbe, parasite or virus in culture; conditions: Escherichia coli, 18 h
# [11] = E. coli UBMS 90-5, read-out: MIC
# [12] = E. coli #311 (MP), read-out: MIC
SMILES,MIC (E. coli UBMS 88-1 Tet B),MIC (E. coli PRP1 Tet A),MIC (E. coli J3272 Tet C),MIC (E. coli UBMS 89-1 Tet M),MIC (E. coli J2175),MIC (E. coli BAJ9003 IMP MUT),MIC (E. coli UBMS 90-4 Tet M),MIC (E. coli UBMS 90-5; [11]),MIC (E. coli #311 (MP); [12]),MIC (E. coli J3272 Tet D),MIC (S. marcescens FPOR 8733),MIC [2],MIC [3],MIC (S. aureus NEMC 8769),MIC (S. aureus UBMS 88-4),MIC [4],MIC [5],MIC [6],MIC (S. aureus IVES 2943),MIC [8],other results
"CNCC(=O)Nc1ccc2c(c1O)C(=O)C1=C(O)[C@]3(O)C(=O)C(C(N)=O)=C(O)[C@@H](N(C)C)C3CC1C2 (stereo partly drawn) [F, [4S-(4alpha,12aalpha)]-4-(Dimethylamino)-1,4,4a,5,5a,6,11,12a-octahydro-3,10,12,12a-tetrahydroxy-9-[[(methylamino)acetyl]amino]-1,11-dioxo-2-naphthacenecarboxamide dihydrochloride]",1 µg/mL,4 µg/mL,4 µg/mL,0.5 µg/mL,0.5 µg/mL,0.5 µg/mL,0.5 µg/mL,0.5 µg/mL,0.5 µg/mL,0.5 µg/mL,4 µg/mL,16 µg/mL,32 µg/mL,0.25 µg/mL,0.5 µg/mL,1 µg/mL,16 µg/mL,0.5 µg/mL,> 32 µg/mL,1 µg/mL,"MIC [1]: 1 µg/mL; MIC (E. coli ATCC 25922; read-out: MIC): 0.5 µg/mL; MIC (S. aureus UBMS 90-3): 0.5 µg/mL; MIC [7]: 0.5 µg/mL; MIC (S. aureus ROSE (MP)): > 32 µg/mL; MIC (S. aureus SMITH (MP)): 0.5 µg/mL; MIC (S. aureus IVES 1983; S. aureus IVES 1983, read-out: MIC): 16 µg/mL; MIC (S. aureus ATCC 29213): 0.5 µg/mL; MIC (Enterococcus 12201): 0.5 µg/mL; MIC (E. faecalis ATCC 29212): 0.5 µg/mL"
"CCCCCNCC(=O)Nc1ccc2c(c1O)C(=O)C1=C(O)[C@]3(O)C(=O)C(C(N)=O)=C(O)[C@@H](N(C)C)C3CC1C2 (stereo partly drawn) [K, [4S-(4alpha,12aalpha)]-4-(Dimethylamino)-1,4,4a,5,5a,6,11,12a-octahydro-3,10,12,12a-tetrahydroxy-1,11-dioxo-9-[[(pentylamino)acetyl]amino]-2-naphthacenecarboxamide monohydrochloride]",1 µg/mL,0.5 µg/mL,0.5 µg/mL,–,0.5 µg/mL,–,–,–,–,0.5 µg/mL,–,1 µg/mL,32 µg/mL,0.12 µg/mL,–,–,2 µg/mL,–,2 µg/mL,2 µg/mL,MIC [9]: 0.5 µg/mL; MIC [10]: 0.5 µg/mL; MIC (E. coli UBMS 90-4 Tet M; E. coli UBMS 90-4 Tet M): 0.5 µg/mL; MIC (E. coli UBMS 90-5): 0.5 µg/mL; MIC (E. coli #311 (MP)): 0.5 µg/mL; MIC (E. coli ATCC 25922): 0.5 µg/mL; MIC (S. marcescens FPOR 8733; read-out: MIC): 4 µg/mL; MIC ([4]; S. aureus UBMS 88-5 Tet M): 0.5 µg/mL; MIC ([6]; S. aureus UBMS 90-1 Tet M): 0.5 µg/mL; MIC (S. aureus ROSE (MP); read-out: MIC): 8 µg/mL; MIC (S. aureus IVES 1983): 2 µg/mL; MIC (S. aureus ATCC 29213; read-out: MIC): 0.5 µg/mL
"CN(C)[C@@H]1C(O)=C(C(N)=O)C(=O)[C@@]2(O)C(O)=C3C(=O)c4c(ccc(NC(=O)CNCc5cccs5)c4O)CC3CC12 (stereo partly drawn) [L, [4S-(4-alpha,12aalpha)]-4-(Dimethylamino)-1,4,4a,5,5a,6,11,12a-octahydro-3,10,12,12a-tetrahydroxy-1,11-dioxo-9-[[[(2-thienylmethyl)amino]acetyl]amino]-2-naphthacenecarboxamide dihydrochloride]",32 µg/mL,16 µg/mL,32 µg/mL,8 µg/mL,16 µg/mL,4 µg/mL,8 µg/mL,16 µg/mL,16 µg/mL,16 µg/mL,> 32 µg/mL,> 32 µg/mL,> 32 µg/mL,8 µg/mL,8 µg/mL,8 µg/mL,16 µg/mL,8 µg/mL,16 µg/mL,8 µg/mL,"MIC [9]: 8 µg/mL; MIC [10]: 32 µg/mL; MIC (E. coli ATCC 25922): 8 µg/mL; MIC (S. aureus UBMS 90-3; S. aureus UBMS 90-3): 4 µg/mL; MIC [7]: 8 µg/mL; MIC (S. aureus ROSE (MP)): 32 µg/mL; MIC (S. aureus SMITH (MP); S. aureus SMITH (MP)): 4 µg/mL; MIC (S. aureus IVES 1983): 16 µg/mL; MIC (S. aureus ATCC 29213): 8 µg/mL; MIC (Enterococcus 12201; Enterococcus 12201, read-out: MIC): 8 µg/mL"
